pIC50: −log10 of the molar value. Entries after “also recorded” stand apart in the source; their conditions may differ.
What was measured:
[1] = test system: methylated BSA-induced model of delayed type hypersensitivity; assay: Mouse delayed type hypersensitivity model (methylated BSA), paw swelling; type: in vivo; conditions: Compound A 100 mg/kg intraperitoneal at -24, -1 and +6 hrs from challenge; paw weight 24 hours later
Experimental: Balb/C mice were divided into two groups: control/vehicle and treated. They were sensitized intradermally on day 0 with methylated BSA (metBSA), and then challenged with metBSA on day 7 in the right hind paw. Compound A was administered at a dose of 100 mg/kg to the treated group by intraperitoneal injection −24, −1 and +6 hrs from the time of challenge. All animals were sacrificed 24 hours later and the left and right hind paws weighed. The left hind paw weight was subtracted from the right hind paw to give the paw weight increase.

[2] = test system: murine model of aerosolized ovalbumin-induced asthma; assay: Mouse asthma model, airway eosinophilia and hyperreactivity; type: in vivo
Experimental: Male BALB-C mice, 6 weeks of age, were randomly assigned to one of following groups: ova/ova, vehicle control, dexamethasone (3 mg/kg) treatment, and Compound A. Animals were weighed on day 0, 7, 12 and 14 and were given access to food and water ad libidum. Mice were sensitized intraperitoneally with 8 μg of ovalbumin and 1 mg of aluminum hydroxide on Day 0 and Day 5. The animals were exposed to aerosolized ovalbumin (0.5%) twice on Day 12 (1 hr & 10 minutes per exposure). The ovalbumin exposures were separated by at least 4 hours. Differentials were performed on bronchoaveolar lavage fluid on Day 14 to determine % eosinophils. Compound A was orally administered daily at a dose of 300 mg/kg from time of sensitization to termination of study to the Compound A group.

p3xCPRE/Luc [3] = assay: p3xCPRE/Luc reporter, transient transfection in HMEC cells; type: cell-based, human; conditions: Compound A 10 μM
Experimental: (§1) In an effort to determine the utility of the CPRE-Luc reporter construct for the identification of small molecular weight compounds that activate the CPRE, the p3xCPRE/Luc reporter was transiently transfected into both HeLa and endothelial cells (HMECs). […] Similar results were obtained in HeLa cells with both t-BHQ and compound A (FIG. 12b).
(§2) HMECs and HeLa cells were transiently transfected with 1 μg of 3xCPRE-Luc and 0.1 μg of pRL-SV40. One day after transfection, cells were treated with t-BHQ or compound A. Luciferase activities were determined 16 hours after exposure to tBHQ. To generate stable HeLa cell lines that contain a stably-integrated copy of the CPRE-Luc gene, HeLa cells were transfected with p3xCPRE-Luc plus pcDNA-LacZ-Hyg (an expression vector containing the hygromycin drug resistance gene) using SuperFect transfection reagent. Two days after transfection, cells were cultured in hygromycin (400 μg/ml)-containing selection medium until individual colonies were identified. The colonies were expanded and the presence of CPRE-Luc-containing clones was examined by inducible luciferase activity. All experiments are an average of at least three independent determinations for each experimental sample.

CPRE promoter = assay: Stable HeLa cell line with stably-integrated CPRE-Luc gene; type: cell-based, human
Experimental: Although transient transfection methods are useful for understanding molecular mechanisms of gene expression and cellular biology, they are not suitable for high-throughput screening of libraries of compounds. Therefore, a stable HeLa cell line was generated that contains a stably-integrated copy of the CPRE-Luc gene.
as §2

p3xCPRE/Luc [4] = assay: p3xCPRE/Luc reporter, transient transfection in HeLa cells; type: cell-based, human
Experimental: HMEC cells (passage 20) and HeLa cells were seeded into 6 well plates and were grown to approximately 60-70% confluency. Cells were transfected with 2 μg (HeLa) or 1 μg (HMEC) each of p3xCPRE/Luc reporter and Nrf-2 expression vector (an expression vector containing the full-length murine Nrf-2 gene under the control of the CMV promoter (Asakura & Karino (1990) Circ Res, 66:1045-1066). Cells were cultured for an additional 48 hours, and luciferase activity was determined (Promega). An average of at least three independent determinations were made for each experimental sample. Results are expressed as ratio of firefly/renilla luciferase.
as §1, §2

p3xCPRE/Luc [5] = assay: Activation of p3xCPRE/Luc by small molecular weight organic compounds (Table 6); type: cell-based, human; conditions: luciferase activity 16 hours after exposure
Experimental: In the in vitro assay system described above, a stable HeLa cell line was generated that contains a stably-integrated copy of the CPRE-Luc gene.
as §2, with “the compounds listed in Table 6” for “t-BHQ or compound A.”, “the compounds.” for “tBHQ.”, “SuperFeet” for “SuperFect”, “All experiments are an average of at least three independent determinations for each experimental sample.” left out

VCAM-1 = assay: TNF-α-activated cell surface expression of VCAM-1 in cell culture models; type: cell-based; conditions: read-out: IC50, inhibition of TNF-α-activated cell surface expression of VCAM-1
[6] = test system: murine model of allergen-induced peritonitis; assay: Murine model of allergen-induced peritonitis (Type 1 hypersensitivity), eosinophil recruitment; type: in vivo, mouse; conditions: Compound A 50 mg/kg/d intravenous, 1 or 4 hours prior to ovalbumin challenge
Experimental: To evaluate the anti-inflammatory potential of compound A, a murine model of Type 1 hypersensitivity was used. In this model mice are sensitized to ovalbumin and subsequently challenged with ovalbumin by intraperitoneal injection. This leads to eosinophil recruitment and accumulation in the peritoneal cavity 24-48 hours after the challenge.
6-8 week old Balb/c mice (weighing 20-30 g) were given subcutaneous injections of ovalbumin in alum (0.4 ml of 100 μg ovalbumin and 3.3 mg of Alum Inject) on days 0 and 7. The mice were challenged on day 14 with an intraperitoneal injection of ovalbumin (10 μg in 0.2 ml saline). The mice were sacrificed and peritoneal lavage fluid collected 48 hours after the challenge. The peritoneal fluid was concentrated and slide smears made using a cytospin centrifuge. Slides were stained with Diff-Quik and differential counts obtained by counting 300 cells. Compound A was administered by intravenous injection, in a vehicle composed of 95% Liposyn and 5% Tween 20, 4 or 1 hour prior to challenge. Compound A was compared to dexamethosone administered orally at a dose of 2.5 mg/kg/d.
In a common allergic inflammation, balb/C mice were divided into two groups: control/vehicle and Compound G treated. They were then sensitized to ovalbumin on days 0 and 7 with a subcutaneous injection of ovalbumin absorbed in aluminum hydroxide. The treated group was dosed i.v. 50 mg/kg in liposyn/tween and vehicle one day prior to challenge. The mice were then challenged with an intraperitoneal injection of ovalbumin on day 14 and sacrificed 48 hrs post-challenge. Peritoneal fluid was collected and spun down onto slides. Slides were stained with DiffQuik and a differential performed.

Structure (SMILES): COc1cc(OC)c(-c2cc3ccccc3s2)cc1/C=C/C(=O)c1cc(OC)c(OC)c(OC)c1 [Compound A, 3-(5-Benzo-[b]-thiophene-2-yl-2,4-dimethoxy-phenyl)-1-(3,4,5-trimethoxy-phenyl)propenone]
- Inhibition of paw swelling compared with the vehicle controls [1]: 79%
- Inhibition of eosinophilia in bronchoaveolar lavage fluid compared with vehicle controls ([2]; Compound A 300 mg/kg oral daily, Day 14, p<0.05): 48%
- Eosinophil levels in bronchoaveolar lavage fluid ([2]; Compound A 300 mg/kg/d oral): significantly decreased
- Lung function (airway hyperreactivity to methacholine) ([2]; Compound A 300 mg/kg/d oral, 300 mg/kg/day): significantly improved lung function
- p3xCPRE/Luc activity (induction of transcription from the CPRE) (p3xCPRE/Luc [3]): greater than two-fold; also recorded: significantly increased
- CPRE/Luc activity, percent increase over control (vehicle) levels, concentration-response (CPRE promoter; Hela cells, 1.25, 2.5, 5, 10, 20 and 40 μM (FIG. 14)): significantly elevated in a concentration-dependent manner
- Concentration of maximum activation of the CPRE promoter (CPRE promoter; stable HeLa cell line (FIG. 14)): approximately 20 μM
- p3xCPRE/Luc activity (p3xCPRE/Luc [4]; Compound A 10 μM): significantly increased
- p3xCPRE/Luc activity (p3xCPRE/Luc [4]; compound A 15 μM (FIG. 9c)): significantly increased
- p3xCPRE/Luc activity, concentration-response (p3xCPRE/Luc [4]; transient transfection, 5, 10 and 20 μM (FIG. 13)): dose-dependent response; also recorded: significantly increased
- CPRE Activity: concentration to achieve a two-fold induction of CPRE activity over control (p3xCPRE/Luc [5]): 4.5 µM
- pIC50 (VCAM-1): ~5.85
- Eosinophil levels in peritoneal fluid (percent eosinophils) [6]: significantly decreased
- Eosinophil levels in peritoneal fluid (percent eosinophils) ([6]; listed as compound A): significantly significant reduction
